# Measurements taken from article PMC5404542, “In Vitro and In Vivo Antifungal Profile of a Novel and Long-Acting Inhaled Azole, PC945, on Aspergillus fumigatus Infection” (Antimicrobial Agents and Chemotherapy, 2017).
# Where two headings read alike, the source gives them in different places.
# Key:
# [1] = tested on: Cryptococcus neoformans (ATCC 24067); assay: MIC, CLSI; assay type: cell-based; details: for MIC: Cryptococcus neoformans, ATCC24067, 1 strain, CLSI, read-out: MIC
# [2] = tested on: Trichophyton rubrum (ATCC 10218); assay: MIC, CLSI; assay type: cell-based; details: ATCC10218, 1 strain
# [3] = tested on: Candida glabrata (ATCC 36583, R363); assay: MIC, CLSI; assay type: cell-based; details: Nakaseomyces glabratus, ATCC36583; 2 strains, CLSI, mean isolate MIC; read-out: MIC (the MIC given is the MIC50)
# [4] = tested on: Aspergillus niger (ATCC 1015); assay: MIC, EUCAST; assay type: cell-based; details: ATCC1015, 1 strain, EUCAST, read-out: MIC
# [5] = tested on: A. fumigatus hyphae (NCPF2010)
# Procedure: (§1) The persistence of action of test agents was calculated for A. fumigatus hyphae (NCPF2010). […] The plates were incubated for exactly 20 min at 35°C and 5% CO2. After the incubation time had elapsed, all wells on the designated washout plate were aspirated, and growth medium (100 μl/well) was added across the plate. […] Resazurin (0.04%; diluted in growth medium) was added to all wells of both nonwashout and washout plates (5 μl/well) to give a final concentration of 0.002% resazurin. The plates were incubated at 35°C and 5% CO2 for 16 h. […] The percent inhibition for each well was calculated, and the IC50 was calculated from the concentration-response curve generated for each test compound by use of a four-parameter logistic equation (Dotmatics, Bishops Stortford, United Kingdom).
# [6] = tested on: BEAS2B cells infected with A. fumigatus; assay: Persistence of action on bronchial epithelial cells (galactomannan in supernatant); assay type: cell-based, Aspergillus fumigatus; details: for IC50: Aspergillus fumigatus, BEAS-2B
# Procedure: The persistence of action of test agents was evaluated on immortalized bronchial epithelial cells (BEAS2B cells). […] Test and reference articles or undiluted DMSO (as vehicle) (0.5 μl/well) was added to the appropriate wells of the washout plate to give a final concentration of 0.5% DMSO. The plate was incubated for exactly 1 h at 37°C and 5% CO2. After the incubation time had elapsed, all wells on the washout plate were aspirated, and growth medium (100 μl/well) was added across the plate. After 24 h of incubation at 37°C, test and reference articles or undiluted DMSO (as vehicle) (0.5 μl/well) was added to the appropriate wells of the nonwashout plate to give a final concentration of 0.5% DMSO. The plate was incubated for exactly 1 h at 37°C and 5% CO2, after which A. fumigatus conidia were added across both plates to a final concentration of 1 × 10^3/well.
# [7] = tested on: Candida albicans (20240.047, ATCC 10231); assay: MIC, CLSI; assay type: cell-based; details: ATCC10231, 2 strains, CLSI, mean isolate MIC, read-out: MIC (the MIC given is the MIC50)
# [8] = tested on: Penicillium chrysogenum (ATCC 9480); assay: MIC, CLSI; assay type: cell-based; details: ATCC9480, 1 strain
# AfCYP51B = biological target: T1, AfCYP51B (Aspergillus fumigatus, UniProt E9QY26); assay: A. fumigatus CYP51 binding assay (ligand titration, type II difference spectra); details: for Kd: 4 μM purified AfCYP51B
# T1 construct: made in house
# T1 sequence (E9QY26 whole entry): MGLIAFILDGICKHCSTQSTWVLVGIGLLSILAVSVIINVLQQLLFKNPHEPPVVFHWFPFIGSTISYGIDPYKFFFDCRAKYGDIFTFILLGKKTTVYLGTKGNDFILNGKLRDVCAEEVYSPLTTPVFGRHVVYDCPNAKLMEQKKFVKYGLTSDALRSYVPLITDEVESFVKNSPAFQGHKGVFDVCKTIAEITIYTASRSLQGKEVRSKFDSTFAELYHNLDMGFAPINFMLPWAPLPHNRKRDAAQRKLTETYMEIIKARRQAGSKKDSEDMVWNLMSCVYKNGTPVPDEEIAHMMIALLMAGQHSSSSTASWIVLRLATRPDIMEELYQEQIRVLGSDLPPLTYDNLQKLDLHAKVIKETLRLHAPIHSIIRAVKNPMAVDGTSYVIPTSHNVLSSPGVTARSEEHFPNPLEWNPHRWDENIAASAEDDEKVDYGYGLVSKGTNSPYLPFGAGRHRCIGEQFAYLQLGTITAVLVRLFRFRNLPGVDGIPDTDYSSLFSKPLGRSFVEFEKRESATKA
# Procedure: A. fumigatus CYP51 binding properties were determined as described by Warrilow et al. ([35]). Test agents were titrated against 4 μM recombinant A. fumigatus CYP51A or CYP51B protein, and binding saturation curves were constructed from the change in the absorbance between the spectral peak and the trough. A rearrangement of the Morrison equation was used to determine the dissociation constant (Kd) values when ligand binding was tight ([36]).
# [9] = tested on: Rhizomucor pusillus (ATCC 16458); assay: MIC, CLSI; assay type: cell-based; details: ATCC16458, 1 strain
# [10] = tested on: A. fumigatus hyphae (NCPF2010); assay: Persistence of action on A. fumigatus hyphae (resazurin-based microtiter assay); details: for IC50: Aspergillus fumigatus, NCPF2010, 16 h, read-out: Hyphae IC50, No washout; for Hyphae Fold change: washout versus no washout
# Procedure: as §1
# A. fumigatus = A. fumigatus sterol analysis by GC-MS; assay type: cell-based, Aspergillus fumigatus; details: 2 h
# Procedure: A working suspension of A. fumigatus spores was prepared in filter-sterilized MOPS-RPMI 1640 (RPMI 1640 medium containing 2 mM L-glutamine, 2% glucose, and 0.165 M MOPS, buffered to pH 7 with NaOH) to a final concentration of 8 × 10^6 spores ml^-1. […] Samples for baseline determinations were collected by scraping, pelleted by centrifugation at 2,000 rpm for 5 min, and stored at -80°C. Test compounds or DMSO (50 μl) was added to the remaining dishes, which were subsequently gently rocked by hand to disperse the compounds. […] Samples were collected and processed as described above. […] These samples were prepared in the laboratory at Pulmocide Ltd. and sent to the laboratory at the Centre for Cytochrome P450 Biodiversity, Institute of Life Science, […] University Medical School, for experimentation. Nonsaponifiable lipids were extracted as previously reported ([29]) and were derivatized with 0.1 ml N,O-bis(trimethylsilyl)trifluoroacetamide:trimethylchlorosilane (99:1) and 0.3 ml anhydrous pyridine (2 h at 80°C) prior to analysis by gas chromatography-mass spectrometry ([38]). Sterol composition was calculated using peak areas from the gas chromatograms, and the mass fragmentation patterns compared to known standards were used to confirm sterol identity. The sterol contents of A. fumigatus (basal) and treated A. fumigatus (treated with either DMSO, posaconazole, or PC945) were determined.
# [11] = tested on: AR Candida albicans (20183.073, 20186.025); assay: MIC, CLSI; assay type: cell-based; details: read-out: MIC (the MIC given is the MIC50)
# [12] = tested on: A. fumigatus (ATCC 13073 [strain NIH 5233]); assay: In vivo antifungal activity, intranasal treatment of temporarily neutropenic immunocompromised mice; details: for incidence of rolling behavior: 14 μg/mouse intranasally once daily
# Procedure: The mice were reared on a standard diet and tap water ad libitum. […] Conidia were aseptically dislodged from the agar plates and suspended in sterile distilled water with 0.05% Tween 80 and 0.1% agar. […] On day 0, 30 μl of the conidial suspension was administered intranasally.
# Test agents suspended in physiological saline were administered daily intranasally (35 μl) on days 1 to 6, and the survival of animals was recorded for 7 days. […] Deaths and the body weights of surviving animals were monitored daily. A body weight loss of >20% compared to an animal's weight on day 1 and mouse death were both defined as “dropout” events. Animals that lost >20% of their initial body weight were sacrificed. […] Bronchoalveolar lavage fluid (BALF) was collected on day 7 postinfection or on the day that the mouse dropped out of the study. The Aspergillus GM concentration in BALF was determined by use of Platelia GM-EIA kits (Bio-Rad Laboratories). The value was provided as the “cutoff index” (COI), which was calculated by the following formula: COI = OD in sample/OD in cutoff control (provided by the kit).
# [13] = tested on: Cryptococcus gattii (clinical isolate); assay: MIC, EUCAST; assay type: cell-based; details: 1 strain
# [14] = tested on: Candida krusei (ATCC 6258); assay: MIC, CLSI; assay type: cell-based; details: Pichia kudriavzevii, ATCC6258; 1 strain, CLSI; read-out: MIC
# [15] = Precipitation in EUCAST medium; assay type: physicochemical
# [16] = 1 h contact before infection, GM readout after 24 h, read-out: BEAS2B cells IC50, No washout
# [17] = 1 h contact, 24-h washout prior to infection, GM readout, read-out: BEAS2B cells IC50, Washout
# [18] = 2.8 μg/mouse intranasally once daily days 1 to 6
# [19] = 14 μg/mouse intranasally once daily days 1 to 6
# [20] = 70 μg/mouse intranasally once daily days 1 to 6
# [21] = 0.56 μg/mouse intranasally once daily days 1 to 6
smiles,measurement,setting,value
"CC[C@@H]([C@H](C)O)n1ncn(-c2ccc(N3CCN(c4ccc(OC[C@@H]5CO[C@@](Cn6cncn6)(c6ccc(F)cc6F)C5)cc4)CC3)cc2)c1=O [Posaconazole, posaconazole]",MIC,[1],16 ng/mL
same,MIC,[2],31 ng/mL
same,MIC50,[3],500 ng/mL
same,MIC,[4],200 ng/mL
same,IC50,[5],2.2 ng/mL
same,IC50,[6]; [16],3.1 ng/mL
same,IC50,[6]; [17],46 ng/mL
same,BEAS2B cells Fold change,[6]; washout versus no washout,14.7 fold
same,MIC50,[7],81 ng/mL
same,MIC,[8],130 ng/mL
same,Kd,"AfCYP51B; Kd1, AfCYP51B, PC945: modified two-site allosteric model, posaconazole: single tight-binding Kd",12 nM
same,MIC,[9],> 8000 ng/mL
same,IC50,[10],0.45 ng/mL
same,Hyphae Fold change,[10],4.90 fold
same,Hyphae Fold change,[10]; listed as posaconazole,4.9 fold
same,"Sterol content in cells, Eburicol",A. fumigatus; 0.0001 μg/ml,2.2%
same,"Sterol content in cells, Ergost-5,7-dienol",A. fumigatus; 0.0001 μg/ml,3.3%
same,"Sterol content in cells, Ergosterol",A. fumigatus; 0.0001 μg/ml,94.5%
same,"Sterol content in cells, Lanosterol",A. fumigatus; 0.0001 μg/ml,0%
same,"Sterol content in cells, Eburicol",A. fumigatus; 0.001 μg/ml,5.9%
same,"Sterol content in cells, Ergost-5,7-dienol",A. fumigatus; 0.001 μg/ml,3.9%
same,"Sterol content in cells, Ergosterol",A. fumigatus; 0.001 μg/ml,87.2%
same,"Sterol content in cells, Lanosterol",A. fumigatus; 0.001 μg/ml,3.0%
same,"Sterol content in cells, Eburicol",A. fumigatus; 0.01 μg/ml,18.3%
same,"Sterol content in cells, Ergost-5,7-dienol",A. fumigatus; 0.01 μg/ml,0%
same,"Sterol content in cells, Ergosterol",A. fumigatus; 0.01 μg/ml,74.7%
same,"Sterol content in cells, Lanosterol",A. fumigatus; 0.01 μg/ml,7.0%
same,"Sterol content in cells, Eburicol",A. fumigatus; 0.1 μg/ml,23.4%
same,"Sterol content in cells, Ergost-5,7-dienol",A. fumigatus; 0.1 μg/ml,0%
same,"Sterol content in cells, Ergosterol",A. fumigatus; 0.1 μg/ml,67.8%
same,"Sterol content in cells, Lanosterol",A. fumigatus; 0.1 μg/ml,8.8%
same,"Sterol content in cells, Eburicol",A. fumigatus; 1 μg/ml,23.8%
same,"Sterol content in cells, Ergost-5,7-dienol",A. fumigatus; 1 μg/ml,0%
same,"Sterol content in cells, Ergosterol",A. fumigatus; 1 μg/ml,67.4%
same,"Sterol content in cells, Lanosterol",A. fumigatus; 1 μg/ml,8.8%
same,MIC50,[11],8130 ng/mL
same,Median days of survival,[12]; [18],5 days
same,No. of survivors on day 7/total no. of mice,[12]; [18],1/8
same,survivors on day 7 (%),[12]; [18],13%
same,incidence of rolling behavior,[12],not
same,Median days of survival,[12]; [19],6 days
same,No. of survivors on day 7/total no. of mice,[12]; [19],7/16
same,survivors on day 7 (%),[12]; [19],44%
same,Median days of survival,[12]; [20],Undefined
same,No. of survivors on day 7/total no. of mice,[12]; [20],6/8
same,survivors on day 7 (%),[12]; [20],75%
same,MIC,[13],500 ng/mL
"Cc1cc(N2CCN(c3ccc(C(=O)Nc4ccc(F)cc4)cc3)CC2)ccc1OC[C@@H]1CO[C@@](Cn2cncn2)(c2ccc(F)cc2F)C1 [PC945, 4-[4-(4-{[(3R,5R)-5-(2,4-difluorophenyl)-5-(1H-1,2,4-triazol-1-ylmethyl)oxolan-3-yl]methoxy}-3-methylphenyl)piperazin-1-yl]-N-(4-fluorophenyl)benzamide]",fold more potent than both voriconazole and posaconazole,[1]; C. neoformans,2 fold
same,MIC,[1],8 ng/mL
same,MIC,[2],31 ng/mL
same,MIC50,[3],500 ng/mL
same,MIC,[4],> 8000 ng/mL
same,IC50,[5],0.086 ng/mL
same,IC50,[6]; [16],3.7 ng/mL
same,IC50,[6]; [17],43 ng/mL
same,MIC50,[7],81 ng/mL
same,MIC,[8],> 8000 ng/mL
same,difference spectra on titration against purified CYP51B,AfCYP51B,type II difference spectra
same,Kd,"AfCYP51B; Kd2, AfCYP51B, modified two-site allosteric model",320 nM
same,MIC,[9],> 8000 ng/mL
same,IC50,[10],0.1 ng/mL
same,fold more potent than posaconazole at inhibiting hyphal growth,[10]; no washout,4.5 fold
same,fold more potent than voriconazole at inhibiting hyphal growth,[10]; no washout,110 fold
same,"Sterol content in cells, Eburicol",A. fumigatus; 0.0001 μg/ml,0%
same,"Sterol content in cells, Ergost-5,7-dienol",A. fumigatus; 0.0001 μg/ml,4.1%
same,"Sterol content in cells, Ergosterol",A. fumigatus; 0.0001 μg/ml,95.9%
same,"Sterol content in cells, Lanosterol",A. fumigatus; 0.0001 μg/ml,0%
same,"Sterol content in cells, Eburicol",A. fumigatus; 0.001 μg/ml,2.7%
same,"Sterol content in cells, Ergost-5,7-dienol",A. fumigatus; 0.001 μg/ml,2.5%
same,"Sterol content in cells, Ergosterol",A. fumigatus; 0.001 μg/ml,94.7%
same,"Sterol content in cells, Lanosterol",A. fumigatus; 0.001 μg/ml,0%
same,"Sterol content in cells, Eburicol",A. fumigatus; 0.01 μg/ml,6.5%
same,"Sterol content in cells, Ergost-5,7-dienol",A. fumigatus; 0.01 μg/ml,3.3%
same,"Sterol content in cells, Ergosterol",A. fumigatus; 0.01 μg/ml,86.7%
same,"Sterol content in cells, Lanosterol",A. fumigatus; 0.01 μg/ml,3.6%
same,"Sterol content in cells, Eburicol",A. fumigatus; 0.1 μg/ml,13.2%
same,"Sterol content in cells, Ergost-5,7-dienol",A. fumigatus; 0.1 μg/ml,0%
same,"Sterol content in cells, Ergosterol",A. fumigatus; 0.1 μg/ml,80.6%
same,"Sterol content in cells, Lanosterol",A. fumigatus; 0.1 μg/ml,6.2%
same,"Sterol content in cells, Eburicol",A. fumigatus; 1 μg/ml,19.3%
same,"Sterol content in cells, Ergost-5,7-dienol",A. fumigatus; 1 μg/ml,0%
same,"Sterol content in cells, Ergosterol",A. fumigatus; 1 μg/ml,71.3%
same,"Sterol content in cells, Lanosterol",A. fumigatus; 1 μg/ml,9.4%
same,MIC50,[11],8250 ng/mL
same,MIC,[14],125 ng/mL
same,Median days of survival,[12]; [21],6 days
same,No. of survivors on day 7/total no. of mice,[12]; [21],4/8
same,survivors on day 7 (%),[12]; [21],50%
same,Median days of survival,[12]; [18],6.5 days
same,No. of survivors on day 7/total no. of mice,[12]; [18],5/8
same,survivors on day 7 (%),[12]; [18],63%
same,incidence of rolling behavior,[12],substantially inhibited
same,Median days of survival,[12]; [19],Undefined
same,No. of survivors on day 7/total no. of mice,[12]; [19],10/16
same,survivors on day 7 (%),[12]; [19],63%
same,concentration at which compound precipitated in EUCAST medium,[15],> 4000 ng/mL
same,MIC,[13],250 ng/mL
